Drawing on publication PMC11277018, “Recombinant Expression and Characterization of a Novel Thermo-Alkaline Lipase with Increased Solvent Stability from the Antarctic Thermophilic Bacterium Geobacillus sp. ID17” (International Journal of Molecular Sciences, 2024), this text covers Km for five molecules.

The structures appear in SMILES notation. Like-named read-outs stand apart in the source and are kept apart here.

The test system of the assay is T1, Lip7.
T1 construct: theoretical 43 kDa, 47 kDa by SEC, 37 kDa by SDS-PAGE; monomer
The assay can be described thus: spectrophotometric p-nitrophenol release, allosteric sigmoidal fit. In kind it is biochemical, Geobacillus sp. ID17. To be noted: 25 °C, pH 8.0, 50 mM potassium phosphate, read-out: K1/2. The text has this: spectrophotometric p-nitrophenol release, allosteric sigmoidal fit on Lip7

On to `CCCCCCCC(=O)Oc1ccc([N+](=O)[O-])cc1` [p-nitrophenyl octanoate], for which the Km (2% (v/v) Triton X-100, Hill n 2.4 ± 0.8) was 1600 ± 300 µM.
With `CCCCCCCCCC(=O)Oc1ccc([N+](=O)[O-])cc1` [p-nitrophenyl decanoate], the Km (2% (v/v) Triton X-100, Hill n 3.1 ± 1.4) was 2200 ± 300 µM.
`CCCCCCCCCCCC(=O)Oc1ccc([N+](=O)[O-])cc1` [p-nitrophenyl laurate]: under “2% (v/v) Triton X-100 (mixed micelles; interfacial), Hill n 1.8 ± 0.4”, the Km worked out at 1700 ± 400 µM.
With `CCCCCCCCCCCCCC(=O)Oc1ccc([N+](=O)[O-])cc1` [p-nitrophenyl myristate], for the setting “2% (v/v) Triton X-100, Hill n 3.2 ± 0.6”, the Km came out at 1400 ± 100 µM.
As for `CC(=O)Oc1ccc([N+](=O)[O-])cc1` [p-nitrophenyl acetate], under “2% (v/v) Triton X-100, Hill n 1.9 ± 0.5”, the Km is 3400 ± 700 µM.
